Tests used:
PC12 cells = experiment: Spectral index of the labeled amyloid peptide on PC12 cells preincubated with unlabeled beta-amyloid peptide; type: cell-based, rat; details: PC12 cells preincubated 12 hours with 100 or 250 nM unlabeled peptide, FIG. 5, 4 independent experiments in triplicate
Method: PC12 cells (derived from male rat medullo-adrenal gland tumor) are inoculated into glass-bottomed Petri dishes previously treated with collagen and polyornithine. They are cultured for 7 days in an atmosphere containing 5% of CO2 at 37° C. in RPMI 1640 medium containing glutamine and supplemented with 10% of horse serum, 5% of fetal calf serum, 50 U/mL of penicillin and 50 μg/mL of streptomycin. To induce the differentiation of the cells, 50 ng/mL of murine neurotrophic growth factor (NGF) 2.5S are added to the medium 24 hours after the inoculation.
The day before the measurement, unlabeled beta-amyloid peptide 1-42 of SEQ. ID. No.: 1 or the corresponding unlabeled reverse peptide (42-1) of SEQ ID No.: 2 is added at different concentrations lying between 10 and 1000 nmol·L^−1.
The following day, this preparation is washed 3 times with Krebs medium at ambient temperature and placed on an inverted microscope coupled with a spectro-fluorimeter. A fluorescence spectrum (excitation 480 nm; emission 495-600 nm) of the base line is recorded before the addition of the labeled amyloid peptide (250 nmol·L^−1). A second fluorescence spectrum is recorded after 10 minutes of incubation.
The base line spectrum is subtracted from the fluorescence spectrum of the labeled amyloid peptide. […] The ratio of the amplitude (measured graphically or else with the deconvolution software) of the Gaussian curves centered respectively at 525 nm and 540 nm defines a spectral index describing the distribution of the spectrum
The PC12 cells are preincubated for 12 hours in the presence of unlabeled beta-amyloid peptide 1-42 or 42-1 then rinsed before being placed under a microscope coupled to a spectrofluorimeter. A first spectrum (base line) is recorded.
Next, the labeled beta-amyloid peptide is added. A spectrum is recorded 10 minutes after the addition of the fluorescent compound.
The spectral index is the ratio between the amplitude of the first and that of the second Gaussian calculated by deconvolution (see FIG. 4).

rat erythrocytes = experiment: Spectral index of the labeled amyloid peptide on rat erythrocytes preincubated with unlabeled beta-amyloid peptide; type: cell-based; details: rat erythrocytes incubated 2 hours at 37° C. with unlabeled peptide (10-1000 nmol·L^-1); FIG. 6
Method: A sample of rat blood (1 to 3 ml) is collected in a heparinized tube. The sample is diluted with Krebs medium then centrifuged three times discarding the buffer layer (“buffy coat”). The erythrocytes obtained are next incubated at 37° C. for 2 hours in the presence of the unlabeled beta-amyloid peptide 1-42 or the corresponding unlabeled reverse peptide (42-1) at various concentrations (10-1000 nmol·L^−1). After an additional washing, the cells are placed in a spectro-fluorimeter and a fluorescence spectrum (excitation 480 nm; emission 495-600 nm) of the base line is recorded before the addition of the labeled amyloid peptide (250 nmol·L^−1). A second fluorescence spectrum is recorded after 10 minutes of incubation in the presence of the labeled amyloid peptide.
The base line spectrum is subtracted from the fluorescence spectrum of the labeled beta-amyloid peptide. The spectrum obtained is broken down into 4 component Gaussian curves by deconvolution and non-linear regression. The ratio of the amplitude of the Gaussian centered around 510 nm to the amplitude of the Gaussian centered around 530 nm is calculated. Its value varies as a function of the concentration of unlabeled beta-amyloid peptide 1-42 in the presence of which the cells were incubated as illustrated in FIG. 6.

Substance | change in the value of the spectral index of the labeled amyloid peptide induced by preincubation with unlabeled peptide (PC12 cells) | value of the spectral index (ratio of Gaussian amplitudes around 510 nm and 530 nm) of the labeled amyloid peptide after preincubation with unlabeled peptide (rat erythrocytes) | change in the value of the spectral index of the labeled amyloid peptide induced by preincubation with unlabeled peptide (PC12 cells; listed as β-amyloid peptide 42-1)
beta-amyloid peptide 1-42: unlabeled human beta-amyloid peptide 1-42 of SEQ ID No.: 1 | increases with the increase in concentration of peptide preincubated | increases as a function of the concentration | 
beta-amyloid peptide 42-1: corresponding unlabeled reverse peptide (42-1) of SEQ ID No.: 2, inactive (AIVVGGVMLGIIAGKNSGVDEAFFVLKQHHVEYGSDHRFEAD; listed as Homo sapiens) | no significant effect |  | absence of change
